Measurements from ChEMBL document CHEMBL1201862, “PubChem BioAssay data set” (2004).
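Grown in 96-well plates, cells were treated for 48 hours with each compound at five concentrations. Insufficient inhibition: endpoint recorded as highest concentration tested. Abbreviation: GI50, concentration required for 50% inhibition of growth.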 Active and inactive are the calls of the source. Cut-off read from the data, not from the text of the source: active = GI50 up to about 1.1 µM and inactive = higher.

Legend:
Experiment in all cases: growth of human tumour cells (NCI), 48 h
786-0 = test system: 786-0
A549 = test system: A549
ACHN = test system: ACHN
BT-549 = test system: BT-549
CAKI-1 = test system: CAKI-1
CCRF-CEM = test system: CCRF-CEM
COLO 205 = test system: COLO 205
DU-145 = test system: DU-145
EKVX = test system: EKVX
HCC 2998 = test system: HCC 2998
HCT-116 = test system: HCT-116
HCT-15 = test system: HCT-15
HL-60 = test system: HL-60
HOP-62 = test system: HOP-62
HOP-92 = test system: HOP-92
HT-29 = test system: HT-29
Hs-578T = test system: Hs-578T
IGROV-1 = test system: IGROV-1
K562 = test system: K562
KM12 = test system: KM12
LOX IMVI = test system: LOX IMVI
M14 = test system: M14
MCF7 = test system: MCF7
MDA-MB-231 = test system: MDA-MB-231
MDA-MB-435 = test system: MDA-MB-435
MDA-N = test system: MDA-N
MOLT-4 = test system: MOLT-4
Malme-3M = test system: Malme-3M
NCI-H226 = test system: NCI-H226
NCI-H23 = test system: NCI-H23
NCI-H460 = test system: NCI-H460
NCI-H522 = test system: NCI-H522
NCI/ADR-RES = test system: NCI/ADR-RES
OVCAR-3 = test system: OVCAR-3
OVCAR-4 = test system: OVCAR-4
OVCAR-5 = test system: OVCAR-5
OVCAR-8 = test system: OVCAR-8
PC-3 = test system: PC-3
RPMI-8226 = test system: RPMI-8226
RXF 393 = test system: RXF 393
SF-268 = test system: SF-268
SF-295 = test system: SF-295
SF-539 = test system: SF-539
SK-MEL-28 = test system: SK-MEL-28
SK-MEL-2 = test system: SK-MEL-2
SK-MEL-5 = test system: SK-MEL-5
SK-OV-3 = test system: SK-OV-3
SN12C = test system: SN12C
SNB-19 = test system: SNB-19
SNB-75 = test system: SNB-75
SR = test system: SR
SW-620 = test system: SW-620
T47D = test system: T47D
TK-10 = test system: TK-10
U-251 = test system: U-251
UACC-257 = test system: UACC-257
UACC-62 = test system: UACC-62
UO-31 = test system: UO-31

For `COc1ccc(C[C@H]2COC(=O)[C@@H]2Cc2cccc(Br)c2)cc1OC`, which GI50 (786-0) is on record?
The GI50 was 28.1 µM (inactive).

What about the GI50 (A549) of the same compound?
The GI50 was 32.9 µM (inactive).

What about the GI50 (ACHN) of the same compound?
Its GI50 is 18.6 µM (inactive).

And the GI50 (BT-549)?
Its GI50 is 13.9 µM (inactive).

And the GI50 (CAKI-1)?
The GI50 was 15.3 µM (inactive).

And the GI50 (CCRF-CEM)?
The GI50 was 5.11 µM (inactive).

What about the GI50 (COLO 205) of the same compound?
Its GI50 is 14 µM (inactive).

What about the GI50 (DU-145) of the same compound?
Its GI50 is 33.3 µM (inactive).

And the GI50 (EKVX)?
The GI50 was 29.4 µM (inactive).

And the GI50 (HCC 2998)?
The GI50 was 24.5 µM (inactive).

What about the GI50 (HCT-116) of the same compound?
The GI50 was 12.8 µM (inactive).

And the GI50 (HCT-15)?
The GI50 was 29.7 µM.

What about the GI50 (HL-60) of the same compound?
The GI50 was 12.2 µM (inactive).

What about the GI50 (HOP-62) of the same compound?
The GI50 was 31.4 µM (inactive).

What about the GI50 (HOP-92) of the same compound?
The GI50 was 12.1 µM (inactive).

What about the GI50 (HT-29) of the same compound?
Its GI50 is 21.8 µM (inactive).

And the GI50 (Hs-578T)?
Its GI50 is 32.3 µM (inactive).

And the GI50 (IGROV-1)?
Its GI50 is 31.6 µM (inactive).

What about the GI50 (K562) of the same compound?
The GI50 was 5.97 µM (inactive).

And the GI50 (KM12)?
The GI50 was 18.8 µM (inactive).

What about the GI50 (LOX IMVI) of the same compound?
Its GI50 is 3.85 µM (inactive).

What about the GI50 (M14) of the same compound?
The GI50 was 14.4 µM (inactive).

And the GI50 (MCF7)?
Its GI50 is 16.2 µM (inactive).

What about the GI50 (MDA-MB-231) of the same compound?
Its GI50 is 19.1 µM (inactive).

And the GI50 (MDA-MB-435)?
The GI50 was 26.6 µM (inactive).

And the GI50 (MDA-N)?
The GI50 was 20.7 µM (inactive).

What about the GI50 (MOLT-4) of the same compound?
The GI50 was 8.75 µM (inactive).

What about the GI50 (Malme-3M) of the same compound?
The GI50 was 21.2 µM (inactive).

What about the GI50 (NCI-H226) of the same compound?
Its GI50 is 29.9 µM (inactive).

And the GI50 (NCI-H23)?
The GI50 was 21.2 µM (inactive).

What about the GI50 (NCI-H460) of the same compound?
The GI50 was 26.2 µM (inactive).

And the GI50 (NCI-H522)?
The GI50 was 19.5 µM (inactive).

What about the GI50 (NCI/ADR-RES) of the same compound?
Its GI50 is 24.2 µM (inactive).

And the GI50 (OVCAR-3)?
The GI50 was 20 µM (inactive).

And the GI50 (OVCAR-4)?
Its GI50 is 10.4 µM (inactive).

And the GI50 (OVCAR-5)?
Its GI50 is 33.1 µM (inactive).

And the GI50 (OVCAR-8)?
The GI50 was 24.4 µM (inactive).

What about the GI50 (PC-3) of the same compound?
The GI50 was 15.8 µM (inactive).

And the GI50 (RPMI-8226)?
Its GI50 is 17.8 µM (inactive).

What about the GI50 (RXF 393) of the same compound?
The GI50 was 23.6 µM (inactive).

What about the GI50 (SF-268) of the same compound?
The GI50 was 29.7 µM (inactive).

What about the GI50 (SF-295) of the same compound?
Its GI50 is 32.7 µM (inactive).

And the GI50 (SF-539)?
The GI50 was 19.5 µM (inactive).

And the GI50 (SK-MEL-28)?
Its GI50 is 30.5 µM (inactive).

And the GI50 (SK-MEL-2)?
The GI50 was 26 µM (inactive).

And the GI50 (SK-MEL-5)?
The GI50 was 15.7 µM (inactive).

And the GI50 (SK-OV-3)?
Its GI50 is 26.6 µM (inactive).

And the GI50 (SN12C)?
Its GI50 is 27.5 µM (inactive).

And the GI50 (SNB-19)?
Its GI50 is 52 µM (inactive).

And the GI50 (SNB-75)?
Its GI50 is 8.99 µM (inactive).

What about the GI50 (SR) of the same compound?
The GI50 was 3.05 µM (inactive).

And the GI50 (SW-620)?
The GI50 was 22.5 µM (inactive).

What about the GI50 (T47D) of the same compound?
Its GI50 is 27.7 µM (inactive).

What about the GI50 (TK-10) of the same compound?
Its GI50 is 30.4 µM (inactive).

What about the GI50 (U-251) of the same compound?
Its GI50 is 26.4 µM (inactive).

What about the GI50 (UACC-257) of the same compound?
The GI50 was 21.5 µM (inactive).

What about the GI50 (UACC-62) of the same compound?
Its GI50 is 25.6 µM (inactive).

And the GI50 (UO-31)?
Its GI50 is 22.9 µM (inactive).
